# Experimental data published in US20250332176A1, “TREATMENT FOR FIBROSIS AND INHIBITION OF FIBROSIS” (GALMED RESEARCH AND DEVELOPMENT LTD, priority 2022, published 2025).
# System: Male C57BL/12 mice
# Assay: Bleomycin (BLM)-induced pulmonary fibrosis model
# Assay type: in vivo
# Settings: bleomycin 1.5 U/kg intratracheal, prophylactic, day 0→21
# Method: The following model was employed: • Male C57BL/12 mice,22-26 g • Induction by administration of Bleomycin (1.5 U/kg), intratracheal • Ref. Comp.: Pirfenidone, 100 mg/kg, p.o., BID • Treatment Mode: Prophylactic (from day 0→21)
# Pulmonary fibrosis was induced by bleomycin (BLM) and treated with aramchol (meglumine salt). As a reference, results for the known anti-idiophatic pulmonary fibrosis agent pirfenidone are also presented, in FIGS. 26A-26B, where hydroxyproline was used as biomarker for fibrosis (hydroxyproline use as idiophatic pulmonary fibrosis biomarker is disclosed in “Lung fibrosis is ameliorated by pirfenidone fed in diet after the second dose in a three-dose bleomycin-hamster model”, Iyer, Swarnalatha N.; Margolin, S. B.; Hyde, D. M.; Giri, S. N.; Experimental Lung Research (1998), 24(1), 119-132; and “Simple determination of L-hydroxyproline in idiopathic pulmonary fibrosis lung tissues of rats using non-extractive high-performance liquid chromatography coupled with fluorescence detection after pre-column derivatization with novel synthetic 9-acetylimidazol-carbazole”, Ren, Y.; Zhao, J.; Shi, Y.; Chen, C.; Chen, X.; Lv, C.; Journal of Pharmaceutical and Biomedical Analysis 2017, 142, 1-6).
SMILES,"histopathology of the lungs (H&E, COL1A1, aSMA; FIG. 27)","Ashcroft score, COL1A1 and aSMA quantification (FIGS. 28A-28E) (compared to pirfenidone)"
CCCCCCCCCCCCCCCCCCCC(=O)N[C@H]1CC[C@@]2(C)[C@@H](C1)C[C@@H](O)[C@@H]1[C@@H]2C[C@H](O)[C@]2(C)[C@@H]([C@H](C)CCC(=O)O)CC[C@@H]12 [aramchol],very similar to the one of pirfenidone,treats the fibrosis in better (higher) extent and has more significant effect
"Cc1ccc(=O)n(-c2ccccc2)c1 [pirfenidone, reference compound]",much more similar to the one without the fibrosis,–
